# Measured values published in US20190291112A1, “DROPLET MICROFLUIDICS FOR DRUG SCREENING” (University of Macau, priority 2018, published 2019).
# Where two headings read alike, the source gives them in different places.
# What was measured:
# [1] = tested on: NAS1608 human primary nasopharyngeal tumor sample; test: cells; format: cell-based; details: for viability at 1 µM / viability at 10 µM / cytotoxicity at 10 µM: Homo sapiens; for viability at 1 µM / viability at 10 µM: read-out: mean cell viability; for droplet cell viability range: 17 h post-treatment; for range of droplet cell viability: before treatment (0 h); for mean cell death: normalized to DMSO control, calibrated by 0 h data
# [2] = tested on: derived cell line NAS1604C; test: On chip drug screening of derived cell line; format: cell-based, human
# Protocol: On chip drug screening was performed using the PDMS-based microfluidic chip as described above. A 500 μL glass syringe (Hamilton, USA) and polytetrafluoroethylene (PTFE) tubings with appropriate bore (Cole Parmer, USA) was used to connect between the syringe pump (Harvard Apparatus PHD Ultra Syringe Pump, USA) and the microfluidic chip. Fluorinert® FC-40 (Sigma-Aldrich, USA) supplemented with 2% 008-Fluorosurfactant (Ran Biotechnologies, USA) was used as oil phase; relevant cell culture medium, supplemented with 1% (w/v) methyl cellulose (Sigma-Aldrich, USA) was used as aqueous phase. Cells treated with 0.1% dimethyl sulfoxide (DMSO) were used as negative control.
# Briefly, cells at final concentrations of 1-2×10^6 cells per mL were aliquoted in 0.2 mL PCR tubes, then mixed with corresponding drugs and 2 μM ethidium homodimer 1 (Life Technologies, USA) by manual pipetting. Next, […], cell-drug mixtures were loaded into the tubing, consecutively segregated by oil phase at withdrawal rate of 200 μL/h by syringe pump. After loading all mixtures, the tubing was inserted into the microfluidic chip, which was back-flushed with oil phase at 500 μL/h by syringe pump. After that, the mixtures were infused at 25 μL/h by syringe pump. Finally, the inlet and outlet tubings were cut and sealed with Vaseline (Vaseline, USA). The chips were placed in 150 mm cell culture dish (Coming, USA) containing wet paper towels, and transferred to humidified incubator at 37° C. supplemented with 5% CO2 for 16-24 h incubation. Brightfield and red fluorescence images (Ex. 531/40 nm, Em. 593/40 nm) were taken under 10× magnification (Life Technologies EVOS FL Imaging System, USA).
# (§1) For on chip assays, the number of cells was counted in brightfield and red fluorescence images from each well respectively. Cell viability was calculated as follows: […]
# where Total cells and Dead cells referred to the total number of cells counted from brightfield and red fluorescence images, respectively.
# Drug susceptibility between the primary tumor cell NAS1604 and its derived cell line NAS1604C was compared (FIG. 9). […] Here, the concept of droplet cell viability was introduced to indicate the total number of live cells among all cells in each individual droplet; in turn, the range of droplet cell viability referred to the range of cell viability of all droplets under specified treatment condition. […] On the other hand, mean cell viability of all treatment conditions were higher in the derived cell line NAS1604C than corresponding conditions in the primary tumor cell NAS1604, reminiscent of increased cell viability that was required for tumor amplification.
# MDA-MB-231 cells = test: 384-well microtiter plate drug screening assay (Alamar Blue); format: cell-based, human; details: 384-well plate
# Protocol: (§2) Jurkat E6.1 cells (ATCC® TIB-152™) and MDA-MB-231 cells (ATCC® HTB-26™) were used as models for suspended and adherent cancer cell lines respectively. Jurkat cell line was derived from human acute T cell leukemia, whereas MDA-MB-231 cell line was derived from human metastatic breast adenocarcinoma.
# (§3) Microtiter plate drug screening assays were carried out on 96-well clear round flat-bottom plates (Corning, USA) or 384-well white square flat-bottom plates (Corning, USA).
# (§4) First, 5.0×10^5 or 1.0×10^5 cells were seeded per well for 96-well and 384-well plates respectively. Drugs were diluted with Dulbecco's phosphate-buffered saline (DPBS) (Life Technologies, USA), and subsequently added to achieve final drug concentrations as indicated on the graphs. Afterwards, the plates were transferred to humidified incubator at 37° C. supplemented with 5% CO2 for 16-24 h incubation. Finally, Alamar Blue assay was used to measure cell viability. Fluorescence intensity (Ex. 560 nm, Em. 590 nm) using auto-cutoff was measured from bottom on plate reader (Molecular Devices SpectraMax MS Plate Reader, USA). Cells treated with 0.1% dimethyl sulfoxide (DMSO) were used as negative control, while no cells were added to blank control. All experiments were performed in triplicate for 96-well plates and in quadruplicates for 384-well relates.
# (§5) For microliter plate assays, average relative fluorescence signal measured by plate reader from 6 reads of each well was used as raw data point. Cell viability was calculated as follows: […]
# (§6) where Sample represented raw data points of each sample well, whereas DMSO control and Blank represented average raw data points of all DMSO control and Blank wells, respectively.
# Jurkat cells = test: as above; format: cell-based, human; details: 384-well plate, 16-24 h
# Protocol: as §2, §3, §4, §5, §6
# [3] = tested on: NAS1607 primary nasopharyngeal tumor sample; test: On chip drug screening of primary tumor dissociated cells; format: cell-based, human
# Protocol: All human studies were conducted with the approval of the Panel on Research Ethics of University of Macau and the Research Ethics Committee of Kiang Wu Hospital, according to the Materials Transfer Agreement between University of Macau and Kiang Wu Hospital. Informed consent for sampling and publication without identifiable information was obtained from all participating patients. All patient sample names were double encoded by the university and the hospital, respectively, to remove any trace of patient identity during sample collection, transfer, processing and analysis. Primary tumors were obtained from surgery conducted at Kiang Wu Hospital immediately after tumor resection. Tumor tissue was dissociated as previously described. Briefly, tumor tissue was first cut into small pieces by a scalpel, then transferred to a 50 mL conical tube containing 5 mL Digestion Buffer I (DMEM/F12 medium containing 5% FBS, 5 μg/mL insulin, 500 ng/mL hydrocortisone, 10 ng/mL epidermal growth factor (EGF), 20 ng/mL cholera toxin, 300 U/mL collagenase III and 100 U/mL hyaluronidase), and digested for no more than 12 h with shaking at 100 rpm in humidified incubator at 37° C. supplemented with 5% CO2. After spinning down at 400 g at ambient temperature for 2 min, the cells were resuspended with 2 mL Digestion Buffer II (DMEM/F12 medium containing 5 mg/mL dispase II and 0.1 mg/mL deoxyribonuclease I), followed by digestion at ambient temperature for 5 min. The cells were then washed with 10 mL HBSS (Life Technologies, USA). […]
# Briefly, cells at final concentrations of 1-2×10^6 cells per mL were aliquoted in 0.2 mL PCR tubes, then mixed with corresponding drugs and 2 μM ethidium homodimer 1 (Life Technologies, USA) by manual pipetting. […] Brightfield and red fluorescence images (Ex. 531/40 nm, Em. 593/40 nm) were taken under 10× magnification (Life Technologies EVOS FL Imaging System, USA).
# as §1
# [4] = tested on: primary tumor cell NAS1604 (nasopharyngeal tumor); test: as above; format: cell-based, human
compound,measurement,setting,value
CC(C)C[C@H](NC(=O)[C@H](Cc1ccccc1)NC(=O)c1cnccn1)B(O)O [bortezomib],viability at 1 µM,[1]; 0 h,72.9%
same,viability at 10 µM,[1]; 0 h,78.8%
same,cytotoxicity at 10 µM,"[1]; 17 h, read-out: droplet cell viability reduction in the majority of droplets",35 to 55%
same,cytotoxicity at 10 µM,"[1]; 17 h, read-out: maximum reduction of droplet cell viability",62.9%
same,viability at 1 µM,[1]; 17 h,42.5%
same,viability at 10 µM,[1]; 17 h,34.6%
same,cytotoxicity at 10 µM,"[1]; 17 h, read-out: minimum reduction of droplet cell viability",29.3%
same,share of total sample cell population in droplets with viability reduction of over 30%,"[1]; NAS1608, 10 μM bortezomib, 17 h",92.4%
same,droplet cell viability range,"[1]; NAS1608, 10 μM bortezomib",49.7%
same,range of droplet cell viability,"[1]; NAS1608, 10 μM bortezomib",29.0%
same,mean cell death,"[1]; NAS1608, 10 μM, 17 h",51.7%
same,dose dependence of normalized cell viability,"[1]; NAS1608, 16-24 h, normalized to mock treatment",dose-dependent reduction of cell viability
same,droplet cell viability range,[2]; 1 μM bortezomib,37.5%
same,droplet cell viability range after removal of one droplet outlier,[2]; 1 μM bortezomib,16.1%
same,cell viability compared with mock treatment,"[2]; 1 μM, versus DMSO",highest cell viability
same,viability at 10 µM,"MDA-MB-231 cells; Homo sapiens, 10.0 μM dose, read-out: cell viability",50%
same,IC50,Jurkat cells; Homo sapiens,0.039 µM
same,dose dependence of normalized cell viability,"[3]; NAS1607, 16-24 h, normalized to mock treatment",inverse correlation
same,range of droplet cell viability,"[4]; NAS1604, 1 μM bortezomib",42.6%
same,mean cell viability compared with other treatments,"[4]; NAS1604, 1 μM, versus DMSO and cisplatin",highest mean cell viability
N.N.[Cl][Pt][Cl] [cisplatin],droplet cell viability range,"[1]; NAS1608, 100 μM cisplatin",56.5%
same,range of droplet cell viability,"[1]; NAS1608, 100 μM cisplatin",31.1%
same,mean cell death,"[1]; NAS1608, 100 μM, 17 h",21.0%
same,droplet cell viability range,[2]; 11 μM cisplatin,36.5%
same,droplet cell viability range,[2]; 33 μM cisplatin,71.6%
same,droplet cell viability range after removal of one droplet outlier,[2]; 33 μM cisplatin,40.8%
same,dose dependence of response,[2]; 11 and 33 μM,dose-dependent response
same,IC50,MDA-MB-231 cells,> 50 µM
same,IC50,Jurkat cells,39 µM
same,susceptibility,"[3]; NAS1607, 100 μM and 33 μM",leveled off
same,mean cell viability compared with other treatments,"[4]; NAS1604, 20 μM",lowest mean cell viability
same,range of droplet cell viability,"[4]; NAS1604, 20 μM cisplatin",64.0%
